SMILES strings stand for the structures. In brackets after ≈: the same amount, converted by molar mass. Like-named read-outs stand apart in the source and are kept apart here.

One data set relates to Staphylococcus Onuma. In words: MIC against Staphylococcus Onuma. It is filed as cell-based. From the text:
(§1) Now, for illustrating the excellent pharmacological effects of the compounds of this invention, the values of MIC (γ/ml) of the compounds against various bacteria are shown in the following table, the compounds of this invention are shown by example numbers.

The subject of data set [1] is bacillus megatherium 10778. In words: MIC against bacillus megatherium 10778. It is filed as cell-based. Particulars: bacillus megatherium 10778; read-out: MIC.
Description: as §1

In data set [2] the test system is proteus mirabilis IFM OM-19. In words: MIC against proteus mirabilis IFM OM-19. The class given is cell-based. Particulars: IFMOM19.
Description: as §1
3. proteus mirabilis IFM OM-19

In data set [3] the test system is escherichia coli Kauffman 0-1. In words: MIC against escherichia coli Kauffman 0-1. The class given is cell-based.
Description: as §1
7: escherichia coli Kauffman 0-1

The test system of data set [4] is micrococcus flavus ATCC 10240. In words: MIC against micrococcus flavus ATCC 10240. The class given is cell-based. Particulars: ATCC10240; micrococcus flavus ATCC 10240; read-out: MIC.
Description: as §1

Data set [5] relates to staphylococcus aureus 209P. In words: MIC against staphylococcus aureus 209P. It is filed as cell-based.
Description: as §1
16: staphylococcus aureus 209P

The next data set deals with Shigella sonnei II 37148. In words: MIC against Shigella sonnei II 37148. It is filed as cell-based. Particulars: II37148.
Description: as §1

In data set [6] the test system is Pseudomonas ovalis IAM 1002. In words: MIC against Pseudomonas ovalis IAM 1002. It is filed as cell-based. Conditions: Pseudomonas putida, IAM1002.
Description: as §1
6: Pseudomonas ovalis IAM 1002

For the next data set, the system named is salmonella enteritidis. In words: MIC against salmonella enteritidis. Particulars: Salmonella enterica; salmonella enteritidis; read-out: MIC. The class given is cell-based.
Description: as §1
10: salmonella enteritidis

Data set [7] concerns Bacillus subtilis ATCC 6633. In words: MIC against Bacillus subtilis ATCC 6633. The class given is cell-based. Conditions: ATCC6633; Bacillus subtilis ATCC 6633; read-out: MIC.
Description: as §1
14: Bacillus subtilis ATCC 6633

Another data set deals with proteus vulgaris OX 19US. In words: MIC against proteus vulgaris OX 19US. The class given is cell-based. Conditions: OX19US.
Description: as §1
2. proteus vulgaris OX 19US

The subject of the next data set is Proteus vulgaris OXK US. In words: MIC against Proteus vulgaris OXK US. Conditions: Proteus vulgaris OXK US; read-out: MIC. The class given is cell-based.
Description: as §1
1: Proteus vulgaris OXK US

A further data set has as its system salmonella typhi H901W. In words: microbe, parasite or virus in culture. It is filed as cell-based. Conditions: Salmonella enterica.
The test system of data set [8] is pseudomonas aeruginosa 99 (Gentamycin resistant). In words: MIC against pseudomonas aeruginosa 99 (Gentamycin resistant). It is filed as cell-based.
Description: as §1
5: pseudomonas aeruginosa 99 (Gentamycin resistant)

In data set [9] the test system is Shigella flexnori 2a 1675. In words: MIC against Shigella flexnori 2a 1675. It is filed as cell-based. Particulars: 2A1675.
Description: as §1

Data set [10] can be described thus: water solubility, naked-eye observation of solutions. It is filed as physicochemical. From the text: Then, the experimental results showing the excellent water solubility of the compounds of this invention are illustrated in the following table, the results being the observation results by the naked eyes of the solutions thereof in each concentration as shown in the table.

Data set [11] concerns pseudomonas aeruginosa ATCC 8689. In words: MIC against pseudomonas aeruginosa ATCC 8689. Conditions: ATCC8689. It is filed as cell-based.
Description: as §1
4: pseudomonas aeruginosa ATCC 8689

Data set [12] relates to Klebsiella pneumoniae ATCC 10031. In words: MIC against Klebsiella pneumoniae ATCC 10031. The class given is cell-based. Conditions: ATCC10031.
Description: as §1
8: Klebsiella pneumoniae ATCC 10031

In data set [13] the test system is staphylococcus Shimanishi. In words: MIC against staphylococcus Shimanishi. It is filed as cell-based.
Description: as §1
17. staphylococcus Shimanishi

Where [14] appears, read: Staphylococcus Onuma, read-out: MIC.
[15] abbreviates: escherichia coli Kauffman 0-1, read-out: MIC.
The mark [16] stands for this setting: proteus vulgaris OX 19US, read-out: MIC.
The mark [17] stands for this setting: Klebsiella pneumoniae ATCC 10031, read-out: MIC.
Where [18] appears, read: staphylococcus Shimanishi, read-out: MIC.
Where [19] appears, read: pseudomonas aeruginosa 99 (Gentamycin resistant), read-out: MIC.
Where [20] appears, read: pseudomonas aeruginosa ATCC 8689, read-out: MIC.

Regarding `Cc1nc(S)cc(SCC2=C(C(=O)O)N3C(=O)[C@@H](NC(=O)[C@H](NC(=O)c4cnccc4O)c4ccccc4)[C@H]3SC2)n1` [Example 2, 7-[D-α-(4-hydroxynicotinoylamido)-α-phenylacetamido]-3-(2-methyl-4-mercaptopyrimidin-6-yl)thiomethyl-Δ ^3-cephem-4-carboxylicacid], the MIC in the data set on Staphylococcus Onuma (setting [14]) is 6.25 µg/mL (≈ 10 µM); in data set [1] it was 0.19 µg/mL (≈ 0.304 µM); in data set [2], 0.39 µg/mL (≈ 0.624 µM); in data set [3] (setting [15]) it was 6.25 µg/mL (≈ 10 µM); in data set [4], 3.13 µg/mL (≈ 5.01 µM); in [5] (read-out: MIC) it was 0.39 µg/mL (≈ 0.624 µM). Moreover, the MIC in the data set with Shigella sonnei II 37148 worked out at 12.5 µg/mL (≈ 20 µM); in [6], 12.5 µg/mL (≈ 20 µM); in the data set with salmonella enteritidis it was 0.19 µg/mL (≈ 0.304 µM); in data set [7], 0.39 µg/mL (≈ 0.624 µM); with proteus vulgaris OX 19US (setting [16]), 1.56 µg/mL (≈ 2.5 µM); with Proteus vulgaris OXK US, 0.19 µg/mL (≈ 0.304 µM). The MIC against salmonella typhi H901W stood at 0.19 µg/mL (≈ 0.304 µM); in data set [8] (Pseudomonas aeruginosa), 12.5 µg/mL (≈ 20 µM); in data set [9], 12.5 µg/mL (≈ 20 µM); in data set [11] (Pseudomonas aeruginosa), 12.5 µg/mL (≈ 20 µM); in [12] (setting [17]), 3.13 µg/mL (≈ 5.01 µM); in data set [13] (setting [18]), 3.13 µg/mL (≈ 5.01 µM). Besides, the “water solubility (appearance of solution by the naked eyes)” value in data set [10] (concentration 1%) is “clear”; in [10] (concentration 5%), “clear”; in data set [10] (concentration 10%), “clear”; in [10] (concentration 20%), “slightly turbid”.
With `Cc1c(S)sc(SCC2=C(C(=O)O)N3C(=O)[C@@H](NC(=O)[C@H](NC(=O)c4cnccc4O)c4ccccc4)[C@H]3SC2)c(C)c1=O` [Example 3, 7-[D-α-(4-hydroxynicotinoylamido)-α-phenylacetamido]-3-(3,5-dimethyl-6-mercapto-4-oxo-4H-thiopyran-2-yl)thiomethyl-Δ^3-cephem-4-carboxylic acid], the MIC worked out at 12.5 µg/mL (≈ 18.6 µM) against Staphylococcus Onuma (Staphylococcus); 0.19 µg/mL (≈ 0.283 µM) in data set [1]; 0.78 µg/mL (≈ 1.16 µM) in [2]; 12.5 µg/mL (≈ 18.6 µM) in [3] (Escherichia coli); 1.56 µg/mL (≈ 2.33 µM) in data set [4]; 1.56 µg/mL (≈ 2.33 µM) in data set [5] (read-out: MIC). Moreover, the MIC was 12.5 µg/mL (≈ 18.6 µM) with Shigella sonnei II 37148; 6.25 µg/mL (≈ 9.32 µM) in [6]; 0.78 µg/mL (≈ 1.16 µM) with salmonella enteritidis; 0.78 µg/mL (≈ 1.16 µM) in [7]; 0.39 µg/mL (≈ 0.581 µM) in the data set with proteus vulgaris OX 19US (setting [16]); 0.19 µg/mL (≈ 0.283 µM) in the data set on Proteus vulgaris OXK US. For the same compound, the MIC with salmonella typhi H901W was determined as 3.13 µg/mL (≈ 4.67 µM); in [8] (Pseudomonas aeruginosa), 12.5 µg/mL (≈ 18.6 µM); in data set [9], 6.25 µg/mL (≈ 9.32 µM); in data set [11] (Pseudomonas aeruginosa), 12.5 µg/mL (≈ 18.6 µM); in data set [12] (Klebsiella pneumoniae) it was 12.5 µg/mL (≈ 18.6 µM); in [13] (Staphylococcus), 6.25 µg/mL (≈ 9.32 µM). Further, the “water solubility (appearance of solution by the naked eyes)” value in [10] (concentration 1%), in data set [10] (concentration 5%), in [10] (concentration 10%) and in [10] (concentration 20%) was “clear” in each case.
As to `O=C(O)C1=C(CSc2cc(S)ncn2)CS[C@@H]2[C@H](NC(=O)[C@H](NC(=O)c3cnccc3O)c3ccccc3)C(=O)N12` [Example 5, 7-[D-α-(4-hydroxynicotinoylamido)-α-phenylacetamido]-3-(4-mercaptopyrimidin-6-yl)thiomethyl-Δ^3-cephem-4-carboxylic acid], the MIC against Staphylococcus Onuma (Staphylococcus) worked out at 6.25 µg/mL (≈ 10.2 µM); in data set [1], 0.19 µg/mL (≈ 0.311 µM); in data set [2], 0.19 µg/mL (≈ 0.311 µM); in data set [3] (setting [15]), 3.13 µg/mL (≈ 5.13 µM); in [4], 3.13 µg/mL (≈ 5.13 µM); in [5] (read-out: MIC), 0.78 µg/mL (≈ 1.28 µM). Moreover, the MIC in the data set on Shigella sonnei II 37148 was 6.25 µg/mL (≈ 10.2 µM); in data set [6], 6.25 µg/mL (≈ 10.2 µM); in the data set on salmonella enteritidis it was 0.39 µg/mL (≈ 0.639 µM); in data set [7], 0.39 µg/mL (≈ 0.639 µM); with proteus vulgaris OX 19US (setting [16]) it was 0.78 µg/mL (≈ 1.28 µM); in the data set on Proteus vulgaris OXK US, less than 0.09 µg/mL. Further, the MIC in the data set on salmonella typhi H901W was less than 0.09 µg/mL; in data set [8] (setting [19]), 25 µg/mL (≈ 40.9 µM); in data set [9], 6.25 µg/mL (≈ 10.2 µM); in data set [11] (setting [20]) it was 25 µg/mL (≈ 40.9 µM); in [12] (setting [17]) it was 3.13 µg/mL (≈ 5.13 µM); in [13] (setting [18]), 3.13 µg/mL (≈ 5.13 µM).
For `Nc1nc(S)cc(SCC2=C(C(=O)O)N3C(=O)[C@@H](NC(=O)[C@H](NC(=O)c4cnccc4O)c4ccccc4)[C@H]3SC2)n1` [Example 6], the MIC in the data set on Staphylococcus Onuma (setting [14]) stood at 6.25 µg/mL (≈ 9.99 µM); in data set [1] it was 0.78 µg/mL (≈ 1.25 µM); in data set [2], 1.56 µg/mL (≈ 2.49 µM); in data set [3] (setting [15]), 6.25 µg/mL (≈ 9.99 µM); in [4], 3.13 µg/mL (≈ 5 µM); in data set [5] (read-out: MIC) it was 0.78 µg/mL (≈ 1.25 µM). Also, the MIC with Shigella sonnei II 37148 was found to be 12.5 µg/mL (≈ 20 µM); in [6], 12.5 µg/mL (≈ 20 µM); in the data set on salmonella enteritidis, 0.39 µg/mL (≈ 0.623 µM); in [7], 0.78 µg/mL (≈ 1.25 µM); with proteus vulgaris OX 19US (Proteus vulgaris), 12.5 µg/mL (≈ 20 µM); in the data set with Proteus vulgaris OXK US it was 0.19 µg/mL (≈ 0.304 µM). Also, the MIC against salmonella typhi H901W turned out to be 0.19 µg/mL (≈ 0.304 µM); in data set [8] (setting [19]) it was 50 µg/mL (≈ 79.9 µM); in data set [9], 12.5 µg/mL (≈ 20 µM); in [11] (setting [20]) it was 100 µg/mL (≈ 160 µM); in data set [12] (setting [17]) it was 6.25 µg/mL (≈ 9.99 µM); in data set [13] (setting [18]), 3.13 µg/mL (≈ 5 µM).
In the case of `CSc1nc(S)cc(SCC2=C(C(=O)O)N3C(=O)[C@@H](NC(=O)[C@H](NC(=O)c4cnccc4O)c4ccccc4)[C@H]3SC2)n1` [Example 7, 7-[D-α-(4-hydroxynicotinoylamido)-α-phenylacetamido]-3-(4-mercapto-2-methylthiopyrimidin-6-yl)thiomethyl-Δ^3-cephem-4-carboxylic acid], the MIC in the data set on Staphylococcus Onuma (setting [14]) came out at 3.13 µg/mL (≈ 4.77 µM); in [1], 0.39 µg/mL (≈ 0.594 µM); in data set [2] it was 0.78 µg/mL (≈ 1.19 µM); in data set [3] (setting [15]), 25 µg/mL (≈ 38.1 µM); in data set [4], 0.78 µg/mL (≈ 1.19 µM); in data set [5] it was 0.19 µg/mL (≈ 0.289 µM). Also, the MIC against Shigella sonnei II 37148 worked out at 25 µg/mL (≈ 38.1 µM); in data set [6], 12.5 µg/mL (≈ 19 µM); in the data set with salmonella enteritidis, 0.39 µg/mL (≈ 0.594 µM); in data set [7], 0.19 µg/mL (≈ 0.289 µM); with proteus vulgaris OX 19US (setting [16]), 0.39 µg/mL (≈ 0.594 µM); in the data set on Proteus vulgaris OXK US, 0.78 µg/mL (≈ 1.19 µM). For the same compound, the MIC in the data set on salmonella typhi H901W came out at 0.78 µg/mL (≈ 1.19 µM); in [8] (Pseudomonas aeruginosa), 12.5 µg/mL (≈ 19 µM); in data set [9] it was 12.5 µg/mL (≈ 19 µM); in [11] (setting [20]), 25 µg/mL (≈ 38.1 µM); in data set [12] (Klebsiella pneumoniae), 12.5 µg/mL (≈ 19 µM); in data set [13] (setting [18]), 0.78 µg/mL (≈ 1.19 µM).

The values above are taken from patent US4036834A, “Derivatives of 7-(α-hydroxy-substituted pyridyl carboxamido-α p h Δ^3 -cephem-4-carboxylic acid” (Yamanouchi Pharmaceutical Co., Ltd., priority 1974, dated 1977).
